Legend:
Conditions in all cases: 72 h
Caco-2 [1] = test: cell viability relative to DMSO; higher = less toxic
Calu-3 [2] = test: as above
HepG2 [3] = test: as above
Vero E6 [4] = test: as above
Caco-2 [5] = test: relative viability EC50 (midpoint between 100% and the lowest measured viability); higher = less toxic
Calu-3 [6] = test: as above
HepG2 [7] = test: as above
Vero E6 [8] = test: as above
Caco-2 [9] = test: drug sensitivity score (DSS) for viability; higher = more toxic; extreme values may be limits of the assay
Calu-3 [10] = test: as above
HepG2 [11] = test: as above
Vero E6 [12] = test: as above
U2OS [13] = test: cell viability relative to DMSO; higher = less toxic
U2OS [14] = test: relative viability EC50 (midpoint between 100% and the lowest measured viability); higher = less toxic
U2OS [15] = test: drug sensitivity score (DSS) for viability; higher = more toxic; extreme values may be limits of the assay

Row | Compound | cell viability (Caco-2 [1]; 1 nM) [%] | cell viability (Caco-2 [1]; 10 nM) [%] | cell viability (Caco-2 [1]; 100 nM) [%] | cell viability (Caco-2 [1]; 1000 nM) [%] | cell viability (Caco-2 [1]; 10000 nM) [%] | cell viability (Calu-3 [2]; 1 nM) [%] | cell viability (Calu-3 [2]; 10 nM) [%] | cell viability (Calu-3 [2]; 100 nM) [%] | cell viability (Calu-3 [2]; 1000 nM) [%] | cell viability (Calu-3 [2]; 10000 nM) [%] | cell viability (HepG2 [3]; 1 nM) [%] | cell viability (HepG2 [3]; 10 nM) [%] | cell viability (HepG2 [3]; 100 nM) [%] | cell viability (HepG2 [3]; 1000 nM) [%] | cell viability (HepG2 [3]; 10000 nM) [%] | cell viability (Vero E6 [4]; 1 nM) [%] | cell viability (Vero E6 [4]; 10 nM) [%] | cell viability (Vero E6 [4]; 100 nM) [%] | cell viability (Vero E6 [4]; 1000 nM) [%] | cell viability (Vero E6 [4]; 10000 nM) [%] | relative viability EC50 (Caco-2 [5]) [µM] | relative viability EC50 (Calu-3 [6]) [µM] | relative viability EC50 (HepG2 [7]) [µM] | relative viability EC50 (Vero E6 [8]) [µM] | drug sensitivity score (Caco-2 [9]) | drug sensitivity score (Calu-3 [10]) | drug sensitivity score (HepG2 [11]) | drug sensitivity score (Vero E6 [12]) | cell viability (U2OS [13]; 1 nM) [%] | cell viability (U2OS [13]; 10 nM) [%] | cell viability (U2OS [13]; 100 nM) [%] | cell viability (U2OS [13]; 1000 nM) [%] | cell viability (U2OS [13]; 10000 nM) [%] | relative viability EC50 (U2OS [14]) [µM] | drug sensitivity score (U2OS [15])
1 | CC(C)(OCc1nn(Cc2ccccc2)c2ccccc12)C(=O)O [bindarit] | 104 | 101 | 108 | 102 | 96.8 | 99 | 95.5 | 106 | 95.1 | 104 | 97.2 | 96.4 | 100 | 99.2 | 100 | 102 | 105 | 100 | 107 | 91.4 | > 10 | > 10 | > 10 | > 10 | 0 | 0 | 0 | 0 |  |  |  |  |  |  | 
2 | CC(C)(C)c1ccc(CN2CCN(C(c3ccccc3)c3ccc(Cl)cc3)CC2)cc1 (configuration not stated) [buclizine] | 108 | 98.3 | 100 | 98.3 | 87.5 | 95.1 | 98.3 | 94.6 | 87.1 | 92.1 | 95.7 | 106 | 99.6 | 91.3 | 73.5 | 103 | 102 | 101 | 98.2 | 95.9 | > 10 | > 10 |  | > 10 | 0.2 | 0 | 2.2 | 0 | 96.7 | 97.6 | 96.8 | 98.9 | 90.8 | > 10 | 0
3 | COc1ccc2nc(NC(=O)Nc3ccccc3)sc2c1 [frentizole] | 103 | 98.3 | 88 | 88.2 | 87.9 | 110 | 99.4 | 93.7 | 107 | 91.1 | 101 | 105 | 93.8 | 89.7 | 56.8 | 100 | 105 | 98.6 | 97.1 | 97.5 | > 10 | > 10 |  | > 10 | 1.2 | 0 | 3.7 | 0 | 95.7 | 97.2 | 97 | 95 | 95.3 | > 10 | 0
4 | Cc1c(I)c(=O)n(-c2ccccc2)n1C [iodoantipyrine] | 107 | 104 | 94.8 | 99.4 | 98.7 | 105 | 106 | 96.1 | 93.7 | 93.2 | 94.7 | 102 | 95 | 102 | 91.2 | 98.8 | 93.3 | 96.9 | 95.3 | 101 | > 10 | > 10 | > 10 | > 10 | 0 | 0 | 0 | 0 |  |  |  |  |  |  | 
5 | O=c1[nH]c2ccccc2n1C1CCN(CCOc2ccccc2)CC1 [oxiperomide] | 104 | 105 | 87.3 | 104 | 87.2 | 112 | 101 | 97.1 | 97.9 | 88.2 | 104 | 112 | 95.7 | 98.1 | 64.7 | 97.4 | 95.8 | 98.6 | 99.4 | 78.7 | > 10 | > 10 |  | > 10 | 0 | 0.1 | 1.9 | 0.7 | 98.9 | 108 | 100 | 99.8 | 91.6 | > 10 | 0
6 | Nc1n[n+]([O-])c2ccccc2[n+]1[O-] [tirapazamine] | 99.9 | 102 | 92.3 | 94.8 | 90.4 | 104 | 103 | 107 | 97.8 | 102 | 92.3 | 91.1 | 93.2 | 88.9 | 63.9 | 101 | 97.6 | 101 | 95.6 | 90.7 | > 10 | > 10 |  | > 10 | 0 | 0 | 2.8 | 0 | 100 | 98.9 | 99.1 | 97.8 | 99 | > 10 | 0

Source: the supplement of paper PMC13380429
